Biological target: T1, methionine adenosyltransferase (MAT; S-adenosylmethionine synthetase) (Mycolicibacterium smegmatis, UniProt A0QWT3)
T1 sequence (A0QWT3 1-399): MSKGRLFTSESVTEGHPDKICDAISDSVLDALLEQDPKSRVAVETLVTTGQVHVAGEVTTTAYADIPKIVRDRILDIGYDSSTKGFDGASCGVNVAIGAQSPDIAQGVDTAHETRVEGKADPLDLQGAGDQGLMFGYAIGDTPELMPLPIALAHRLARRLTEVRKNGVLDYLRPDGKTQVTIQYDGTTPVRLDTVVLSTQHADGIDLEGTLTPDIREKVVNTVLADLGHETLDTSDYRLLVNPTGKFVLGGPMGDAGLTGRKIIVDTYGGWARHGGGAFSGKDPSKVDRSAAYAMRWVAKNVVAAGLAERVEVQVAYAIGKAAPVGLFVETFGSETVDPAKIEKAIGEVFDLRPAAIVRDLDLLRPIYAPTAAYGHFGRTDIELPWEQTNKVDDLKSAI
Experiment: HPLC assay of SAM formation, Dixon plots with varied ATP
Format: biochemical

Compound	Ki
Cn1cnc([N+](=O)[O-])c1Sc1ncnc2nc[nH]c12 [azathioprine]	3.74 ± 1 mM
Nc1nc2nn[nH]c2c(=O)[nH]1 [8-azaguanine]	4.7 ± 0.77 mM
